The test system of the test is FD (familial dysautomonia) IKBKAP minigene, exon 20 inclusion, in HEK293T cells. In words: Primary splicing assay (FD IKBKAP minigene, Firefly/Renilla luciferase reporter in HEK293T). Type of test: cell-based, human. The note with it: for EC (maximum kinetin efficacy) / Emax: Homo sapiens, HEK-293T; for EC (maximum kinetin efficacy): HEK293T, read-out: ECk (compound concentration at which the maximum kinetin efficacy (200 μM) is reached); for ECk, Firefly only: Renilla interference/Firefly only (footnote c). (A reporter such as luciferase makes a cellular process visible.)

[1] abbreviates: Firefly/Renilla ratio, 24 hours of treatment.
The mark [2] stands for this setting: max efficacy in Primary Assay, Firefly/Renilla ratio, kinetin and DMSO as positive and negative controls, 24 hours of treatment, read-out: Emax (%).
The mark [3] stands for this setting: max efficacy, Firefly only, footnote c: Renilla interference/Firefly only, read-out: Emax (%) Firefly only.
Where [4] appears, read: max efficacy, value marked (RT-PCR), footnote a: Firefly inhibitor, read-out: Emax (%) (RT-PCR).

Like-named read-outs stand apart in the source and are kept apart here.

For orientation: Emax means the maximal effect, on the per cent scale that the assay sets. As to `OCCn1cc(F)c2c(NCc3ccncn3)nc(Cl)nc21` [(138)], the EC (maximum kinetin efficacy) under setting [1] is 12.8 µM. Moreover, under setting [2], the Emax is 174%. With `Clc1cc(NCc2ccncn2)n2nccc2n1` [(330)], the maximal effect (Emax) under setting [2] was determined as 20%. For the molecule `Clc1nc(NCc2ccco2)c2nc(-c3ccccc3)[nH]c2n1` [(93)], the maximal effect (Emax) under setting [2] was found to be 63%. The same measure, in the same setting: the same measure for `c1coc(CNc2ncnc3[nH]c(C4CC4)nc23)c1` [(96)]: 65%; for `Clc1nc(NCc2ccccn2)c2cc[nH]c2n1` [(350)]: 49.5%. On to `Clc1nc(NCc2ccncn2)c2nc(OC3CCC3)[nH]c2n1` [(321)], for which, under setting [1], the EC (maximum kinetin efficacy) was determined as 1.41 µM. The Emax under setting [2] was determined as 197%. For `Fc1ccccc1CNc1nc(Cl)nc2[nH]ccc12` [(354)], the maximal response (Emax) under setting [2] was 57.5%.

With `Clc1nc(NCc2nccs2)c2nc(OCC3CCCC3)[nH]c2n1` [(332)], under setting [1], the EC (maximum kinetin efficacy) amounted to 0.78 µM. In addition, the maximal response (Emax) under setting [2] was 189%.

`FC(F)(F)CCOc1nc2c(NCc3nccs3)nc(Cl)nc2[nH]1` [(391)]: the EC (maximum kinetin efficacy) under setting [1] is 1.02 µM. The maximum response (Emax) under setting [2] turned out to be 193%. Consider `Fc1ccccc1CNc1nc(Cl)nc2[nH]cnc12` [(352)], for which the maximal effect (Emax) under setting [2] stood at 25%. As to `CCCOc1nc2c(NCc3ccco3)nc(Cl)nc2n1CCO` [(306)], the EC (maximum kinetin efficacy) under setting [1] was 0.7 µM. Further, the maximal effect (Emax) under setting [2] turned out to be 247%.

As for `Clc1nc(NCc2nccs2)c2nc(OC[C@@H]3CCOC3)[nH]c2n1` [(473)], the EC (maximum kinetin efficacy) under setting [1] worked out at 2.1 µM. The maximal effect (Emax) under setting [2] was found to be 130%. On the same counts, the results for `CCOc1nc2c(NCc3nccs3)nc(Cl)nc2[nH]1` [(260)] are 3.43 µM and 130%.

As to `Clc1nc(NCc2nccs2)c2nc(OCc3nccs3)[nH]c2n1` [(329)], the EC (maximum kinetin efficacy) under setting [1] stood at 1.97 µM. Also, the maximal effect (Emax) under setting [2] came out at 209%.

As to `Clc1nc(NCc2cc3ccccc3o2)c2nc[nH]c2n1` [(164)], under setting [2], the Emax is 68%. As for `FCCn1ncc2c(NCc3ccco3)nc(Cl)nc21` [(214)], the EC (maximum kinetin efficacy) under setting [1] turned out to be 11.2 µM. Also, under setting [2], the maximal response (Emax) is 197%.

With `CC(C)(COc1nc2c(NCc3nccs3)nc(Cl)nc2[nH]1)OCc1ccccc1` [(400)], the Emax under setting [2] was 11.4%. For the molecule `Clc1nc(NCc2ccncc2)c2nc(C3CC3)[nH]c2n1` [(141)], the maximal response (Emax) under setting [2] stood at 103%.

For the molecule `Clc1nc(NCc2ccnc3ccccc23)c2nc[nH]c2n1` [(185)], the Emax under setting [2] was 22%.

`Clc1nc(NCc2ccco2)c2cc[nH]c2n1` [(55)]: under setting [1], the EC (maximum kinetin efficacy) was found to be 1.71 µM. For the same molecule, the Emax under setting [2] is 173%. Regarding `Fc1c[nH]c2nc(Cl)nc(NCc3ccncc3)c12` [(114)], the “ECk, Firefly only” value came out at 6.59 µM⁻¹. The maximal effect (Emax) under setting [3] worked out at 174%.

Consider `FC(F)(F)COc1nc2c(NCc3ccncc3)nc(Cl)nc2[nH]1` [(299)], for which the EC (maximum kinetin efficacy) under setting [1] was 1.3 µM. The maximal response (Emax) under setting [2] turned out to be 216%.

Consider `OC[C@H]1O[C@@H](n2cnc3c(NCc4ccco4)ncnc32)[C@H](O)[C@@H]1O` [(463)], for which, under setting [2], the Emax stood at 90%. Consider `Clc1nc(NCc2cscn2)c2nc(OC3COC3)[nH]c2n1` [(497)], for which the EC (maximum kinetin efficacy) under setting [1] came out at 5.56 µM. For the same molecule, the maximum response (Emax) under setting [2] stood at 120%. As to `Clc1nc(NCc2cncs2)c2nc[nH]c2n1` [(378)], under setting [2], the Emax came to 31.8%. Same read-out and setting: for `Cc1cc(CNc2ncnc3[nH]cnc23)on1` [(8)] the value was 25%. Take `c1nc(NCc2ccoc2)c2nc[nH]c2n1` [(465)]: the maximal response (Emax) under setting [4] is 26.3%. As for `[N-]=[N+]=Nc1nc2c(NCc3ccco3)nc(Cl)nc2[nH]1` [(133)], the EC (maximum kinetin efficacy) under setting [1] is 11.8 µM. Also, the maximal response (Emax) under setting [2] worked out at 143%.

In the case of `COC(=O)c1nc2c(NCc3ccco3)nc(Cl)nc2[nH]1` [(232)], the maximal effect (Emax) under setting [2] stood at 59%. In the case of `COCc1c[nH]c2nc(Cl)nc(NCc3ccco3)c12` [(158)], the EC (maximum kinetin efficacy) under setting [1] turned out to be 13.4 µM. In addition, the Emax under setting [2] was found to be 20%. On the same counts, the results for `OCCn1cc(F)c2c(NCc3nccs3)nc(Cl)nc21` [(130)] are 8.9 µM and 201%.

As for `Clc1nc(NCc2ccnc3ccccc23)c2cc[nH]c2n1` [(186)], under setting [2], the Emax came to 17%. On the same count and under the same terms, for `Clc1cc(NCc2nccs2)n2nccc2n1` [(325)] the value was 20%. For `COc1cccc(Nc2ncnc3[nH]cnc23)c1` [(49)], the EC (maximum kinetin efficacy) under setting [1] came to 42.5 µM.

As for `CCCOc1nc2c(NCc3ccncc3)nc(Cl)nc2n1CCO` [(339)], the EC (maximum kinetin efficacy) under setting [1] amounted to 1.31 µM. In addition, the maximum response (Emax) under setting [2] came out at 188%. Taken in the same sequence, the figures for `Fc1cc(CNc2nc(Cl)nc3[nH]ccc23)ccn1` [(487)] were 6.1 µM and 114%. Taken in the same sequence, the figures for `COCCOc1nc2c(NCc3nccs3)nc(Cl)nc2[nH]1` [(328)] were 1.79 µM and 184%. With `c1cc(CNc2ncnc3[nH]cnc23)ncn1` [(68)], the Emax under setting [2] amounted to 62%. Still for that read-out and setting: the same measure for `N#Cc1c[nH]c2nc(Cl)nc(NCc3ccco3)c12` [(145)]: 59%; for `Clc1cc(NCc2nccs2)n2ncnc2n1` [(281)]: 17%.

With `Clc1nc(NCc2ccco2)c2nc(OC[C@@H]3CCOC3)[nH]c2n1` [(472)], the EC (maximum kinetin efficacy) under setting [1] amounted to 1.16 µM. For the same molecule, under setting [2], the maximal response (Emax) was found to be 151%. Take `CC(F)(F)COc1nc2c(NCc3nccs3)nc(Cl)nc2[nH]1` [(388)]: the EC (maximum kinetin efficacy) under setting [1] came out at 0.68 µM. Moreover, the Emax under setting [2] was 215%. Take `Cc1cn(CCO)c2nc(Cl)nc(NCc3ccco3)c12` [(105)]: the “ECk, Firefly only” value stood at 10.36 µM⁻¹. Further, under setting [3], the Emax was 134%. Regarding `COc1nc2c(NCc3nccs3)nc(C#N)nc2[nH]1` [(385)], the maximal response (Emax) under setting [2] was determined as 46%. On the same count and under the same terms, the same measure for `O=C1CCCN1CCOc1nc2c(NCc3nccs3)nc(Cl)nc2[nH]1` [(402)]: 21%. Take `c1ccc(-c2nc(NCc3ccco3)c3nc[nH]c3n2)cc1` [(38)]: the Emax under setting [2] stood at 5%.

Take `c1cncc(CCNc2ncnc3[nH]cnc23)c1` [(41)]: under setting [2], the Emax is 35%. Still for that read-out and setting: for `O=C(c1c[nH]c2nc(Cl)nc(NCc3ccco3)c12)N1CCCC1` [(168)] the value was 54%. Turning to `Brc1nc(NCc2ccco2)c2nc[nH]c2n1` [(266)], the EC (maximum kinetin efficacy) under setting [1] came to 8.52 µM. Moreover, the maximum response (Emax) under setting [2] amounted to 106%.

Take `Clc1nc(NCc2ccco2)c2[nH]cnc2n1` [(458)]: under setting [2], the Emax turned out to be 73.1%. As for `OC1CN(c2nc3c(NCc4ccco4)nc(Cl)nc3[nH]2)C1` [(104)], the EC (maximum kinetin efficacy) under setting [1] came out at 12 µM. Further, the Emax under setting [2] was determined as 246%. On the same counts, the results for `CNc1nc2c(NCc3ccco3)nc(Cl)nc2[nH]1` [(113)] are 5.17 µM and 132%. Consider `OCCn1cc(Cl)c2c(NCc3ccco3)nc(Cl)nc21` [(211)], for which, under setting [1], the EC (maximum kinetin efficacy) was determined as 7.73 µM. Moreover, the Emax under setting [2] amounted to 204%. On to `OCCn1cnc2c(NCc3ccco3)nc(Cl)nc21` [(73)], for which the EC (maximum kinetin efficacy) under setting [1] came out at 17.1 µM. The Emax under setting [2] was found to be 133%. As to `CC(F)(F)COc1nc2c(NCc3cscn3)nc(Cl)nc2[nH]1` [(496)], the EC (maximum kinetin efficacy) under setting [1] amounted to 1.03 µM. In addition, the maximum response (Emax) under setting [2] came to 233%. Regarding `CNC(=O)c1cc2c(NCc3ccco3)nc(Cl)nc2[nH]1` [(187)], the maximum response (Emax) under setting [2] stood at 111%. With `COCCn1ccc2c(NCc3ccco3)nc(Cl)nc21` [(94)], the Emax under setting [4] came out at 180%. In addition, where the note is “determined by RT-PCR, footnote a Firefly inhibitor, footnote b Renilla interference”, the “ECk (RT-PCR)” value lay in the range of 10 to 31.6 µM.

Take `CCCOc1nc2c(NCc3nccs3)nc(Cl)nc2n1CCO` [(312)]: under setting [1], the EC (maximum kinetin efficacy) stood at 2.29 µM. Further, the maximum response (Emax) under setting [2] was determined as 195%. With `COc1nc2c(NCc3ccncc3)nc(Cl)nc2n1CCO` [(287)], under setting [1], the EC (maximum kinetin efficacy) came to 7.56 µM. Besides, the Emax under setting [2] stood at 106%. On the same counts, the results for `Clc1nc(NCc2nccs2)c2nc[nH]c2n1` [(131)] are 7 µM and 190%. Taken in the same sequence, the figures for `CNC(=O)c1nc2c(NCc3ccco3)nc(Cl)nc2[nH]1` [(262)] were 28.4 µM and 64%. For the molecule `Clc1nc(NCc2ccco2)c2nc(OCC3CCC3)[nH]c2n1` [(308)], under setting [1], the EC (maximum kinetin efficacy) stood at 0.15 µM. In addition, under setting [2], the maximum response (Emax) amounted to 310%.

In the case of `OCc1cc2c(NCc3ccco3)nc(Cl)nc2[nH]1` [(170)], the EC (maximum kinetin efficacy) under setting [1] came to 49.5 µM. Further, under setting [2], the maximal effect (Emax) was 92%. For the molecule `Clc1nc(NCc2ccco2)c2c(-c3ccccc3)c[nH]c2n1` [(86)], under setting [2], the maximum response (Emax) was found to be 29%. Turning to `Clc1nc(NCc2ccncc2)c2nc(OC3CCC3)[nH]c2n1` [(294)], the EC (maximum kinetin efficacy) under setting [1] is 0.44 µM. Also, under setting [2], the maximum response (Emax) is 183%. For `Nc1nc(NCc2ccco2)c2nn[nH]c2n1` [(279)], under setting [2], the Emax is 54%. The same measure, in the same setting: for `CC(=O)N1CCC(n2ccc3c(NCc4ccco4)nc(Cl)nc32)CC1` [(197)] the value was 14%. For `OCCCOc1nc2c(NCc3ccco3)nc(Cl)nc2[nH]1` [(249)], the EC (maximum kinetin efficacy) under setting [1] was 0.72 µM. For the same molecule, the maximal response (Emax) under setting [2] came to 256%. Regarding `Clc1nc(NCc2ccco2)c2nc(OCCc3ccccc3)[nH]c2n1` [(492)], the maximum response (Emax) under setting [2] turned out to be 54.5%. Still for that read-out and setting: for `CN(Cc1nccs1)c1nc(Cl)nc2[nH]ccc12` [(363)] the value was 53.2%. For the molecule `CCCCOc1nc2c(NCc3ccco3)nc(Cl)nc2[nH]1` [(311)], the EC (maximum kinetin efficacy) under setting [1] came to 0.56 µM. Further, the Emax under setting [2] was 221%.

In the case of `Clc1nc(NCc2ccnnc2)c2nc[nH]c2n1` [(179)], the Emax under setting [2] was found to be 49%. In the case of `CC#CCOc1nc2c(NCc3ccco3)nc(Cl)nc2[nH]1` [(486)], under setting [1], the EC (maximum kinetin efficacy) is 2.57 µM. Besides, under setting [2], the Emax amounted to 150%. On to `Clc1nc(NCc2nccs2)c2nc(C3CC3)[nH]c2n1` [(142)], for which the EC (maximum kinetin efficacy) under setting [1] was 16.1 µM. Moreover, the Emax under setting [2] was 121%. Consider `C[C@@H](Nc1ncnc2[nH]cnc12)c1ccco1` [(411)], for which the maximal effect (Emax) under setting [2] is 55%.

The values above are taken from patent publication US11702417B2, “Compounds for improving mRNA splicing” (The General Hospital Corporation, priority 2015, dated 2023).
